{
  "source": "patent US20120245505A1",
  "about": "“INTRACAMERAL DEVICES FOR SUSTAINED DELIVERY” (priority 2009, published 2012)",
  "key": {"[1]": {"system": "iris", "conditions": "topical latanoprost (XALATAN); cited from earlier work"}, "[2]": {"system": "age-related macular degeneration", "assay": "Treatment of macular degeneration with bimatoprost-coated intracameral implant", "format": "in vivo, human", "conditions": "person, end of 7-year follow up", "text": "A person has age-related macular degeneration and cataracts in both eyes. […] At the end of a 7-year follow up period the patient can have maintained vision in the both eyes of at least 20/32"}, "[3]": {"system": "glaucoma", "assay": "Treatment of glaucoma with bimatoprost-coated intracameral implant", "format": "in vivo, human", "conditions": "person, intracameral implant coated with sustained release formulation, after 2 weeks", "text": "They have previously received topical therapy, but to no avail. Their vision is worsening as time progresses. […] After 2 weeks, the IOP is reduced."}, "[4]": {"assay": "Release of NaF from implanted intracameral device, HRA imaging", "format": "in vivo, New Zealand white (NZW) rabbit", "conditions": "rabbit eye", "description": "FIGS. 11A-D illustrate a series of Heidelberg retina angiograph (HRA) images of diffusion from an implanted device. FIGS. 11A-D illustrate HRA images after 2 minutes, 5 minutes, 10 minutes and 20 minutes.\nA device in accordance with the present disclosure was loaded with sodium fluorescein (NaF) in a polymeric delivery implant. A New Zealand white (NZW) rabbit had this device implanted in the sub-Tenon's space with the inner port extending into the anterior chamber.\nFIG. 11 illustrates that in as little as 2 minutes after implantation, the NaF had begun to disperse into the anterior chamber. By 20 minutes, the NaF had substantially dispersed into most of the anterior chamber."}},
  "data": [
    {"compound": "CC(C)OC(=O)CCC/C=C\\C[C@@H]1[C@@H](CC[C@@H](O)CCc2ccccc2)[C@H](O)C[C@@H]1O", "note": "[latanoprost]", "values": [
      {"measurement": "increase in brown pigment in the iris", "setting": "[1]", "value": "5-15 % of human eyes"}
    ]},
    {"compound": "CCNC(=O)CCC/C=C\\C[C@@H]1[C@@H](/C=C/[C@@H](O)CCc2ccccc2)[C@H](O)C[C@@H]1O", "note": "[bimatoprost]", "values": [
      {"measurement": "maintained vision in both eyes", "setting": "[2]", "value": "at least 20/32"},
      {"measurement": "IOP", "setting": "[3]", "value": "reduced"}
    ]},
    {"compound": "O=C([O-])c1ccccc1-c1c2ccc(=O)cc-2oc2cc([O-])ccc12.[Na+].[Na+]", "note": "[NaF, sodium fluorescein]", "values": [
      {"measurement": "time after implantation at which NaF had begun to disperse into the anterior chamber", "setting": "[4]; FIG. 11, HRA images", "value": "≤ 2", "unit": "min"},
      {"measurement": "time by which NaF had substantially dispersed into most of the anterior chamber", "setting": "[4]; FIG. 11, HRA images", "value": "≤ 20", "unit": "min"},
      {"measurement": "release of NaF into the anterior chamber (HRA imaging)", "setting": "[4]; device with polymeric delivery implant in sub-Tenon's space, inner port extending into anterior chamber", "value": "sustained-release of NaF into the anterior chamber"}
    ]}
  ]
}
